The values that follow come from patent publication US12247246B2, “Identification of inhibitors of TcpC and TIR NADase activity” (Washington University, priority 2017, dated 2025).

One experiment has as its target T1, SARM1-TIR (Homo sapiens, UniProt Q6SZW1, DEL570-570/DEL657-657).
T1 construct: made in house
T1 sequence (Q6SZW1 with tags, fused parts or gaps DEL570-570/DEL657-657): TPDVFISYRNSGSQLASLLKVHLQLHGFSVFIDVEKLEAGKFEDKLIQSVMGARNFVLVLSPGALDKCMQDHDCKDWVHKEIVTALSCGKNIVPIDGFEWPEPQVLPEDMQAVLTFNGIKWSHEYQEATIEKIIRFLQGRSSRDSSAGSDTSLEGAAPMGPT
The experiment is described as follows: Substrate specificity in NADase assay, purified SARM1-TIR. It is filed as biochemical. To be noted: purified TIR protein, HPLC and LC-MS, 30 minutes.

The subject of experiment [1] is prokaryotic TIR domains (TirS-TIR, TcpC-TIR, TcpA-TIR). The experiment is described as follows: Substrate specificity in NADase assay, purified prokaryotic TIR domains. It is filed as biochemical. To be noted: purified TIR proteins, HPLC and LC-MS, 30 minutes. The protocol:
Supernatant (90 μL) containing the extracted metabolites was mixed with 0.5M Potassium Phosphate buffer (10 μL), and metabolites were analyzed by HPLC (Nexera X2) with Kinetex (100×3 mm, 2.6 μm; Phenomenex) column. Internal standards for NAD^+, Nicotinamide (Nam), ADP Ribose (ADPR), and cyclic ADPR were used to generate standard curves for quantification of the respective compounds. The levels for each compound in each experimental sample were normalized to the 0 min time point that was analyzed concurrently.
Neutralization was performed with 3M K2CO3.
Samples were prepared by mixing the reactions with 50% methanol in distilled water. The samples were placed on ice, centrifuged, soluble metabolites in the supernatant were extracted with chloroform, and the aqueous phase was lyophilized and stored at −20° C. until LC-MS analysis. For LC-MS, the metabolite samples were reconstituted with 5 mM ammonium formate, centrifuged 12,000×g for 10 min, and the cleared supernatant was applied to the LC-MS for metabolite identification and quantification. Liquid chromatography was performed by HPLC system (1290; Agilent) with Atlantis T3 (2.1×150 mm, 3 μm; Waters) column. Samples (10 µl) were injected at a flow rate of 0.15 ml/min with 5 mM ammonium formate for mobile phase A and 100% methanol for mobile phase B and metabolites were eluted with gradients of 2-6 min, 0-20% B; 6-8 min, 20-50% B; 8-10 min 50% B; 10-15 min, 50-0% B. The metabolites were detected with Triple Quad mass spectrometer (6460; Agilent) under positive ESI multiple reaction monitoring (MRM). Metabolites were quantified by MassHunter quantitative analysis tool (Agilent) with standard curves. Standard curves for each compound were generated by analyzing NAD^+, cADPR, ADPR, and Nam reconstituted in 5 mM ammonium formate.
In some instances, NADases are capable of cleaving a number of related molecules, such as the NAD+ precursor Nicotinamide Mononucleotide (NMN) in the case of CD38 (Sauve et al., 1998). Further, we wanted to determine whether prokaryotic TIRs could cleave additional substrates, providing additional paths to modifying cell metabolism. To examine the substrate specificity of the prokaryotic TIR domains, we tested their activity using a wide variety of metabolites and analogs.

The target of experiment [2] is T2, uropathogenic Escherichia coli TcpC TIR domain (TcpC-TIR) (Escherichia coli, UniProt A0A0H2V8B5).
T2 construct: cell lysate
Format: biochemical. To be noted: primary screen 25 μM, 10 μM NAD, 37° C, 60 min (hit: NAD/ADPR ratio >2), then dose response; FIG. 10. On the procedure:
(§1) NRK1-HEK293T cells were seeded onto 150 cm2 plates at 20×10^6 cells per plate. […] Forty-eight hours after transfection, cells were harvested, pelleted by centrifugation at 1,000 rpm (Sorvall ST 16R centrifuge, Thermo Fisher), and washed once with cold PBS (0.01 M phosphate buffered saline NaCl 0.138 M; KCl 0.0027 M; pH 7.4). The cells were resuspended in PBS with protease inhibitors (Complete protease inhibitor cocktail, Roche product #11873580001) and cell lysates were prepared by sonication (Branson Sonifer 450, output=3, 20 episodes of stroke). […] Protein concentration was determined by the Bicinchoninic (BCA) method and used to normalize lysate concentrations.
(§2) The reaction was incubated at 37° C. for 60 min, and then stopped by addition of 180 μl of 0.55 M perchloric acid (HClO4) and placed on ice. After 10 min on ice, the reaction plates were centrifuged for 10 min at 4,000 rpm (Sorvall ST 16R centrifuge). The supernatant (120 μl) was transferred to a new plate and 10 μl of 3M K2CO3 was added to neutralize the solution. Precipitated salts were removed by centrifugation 10 min at 4,000 rpm (Sorvall ST 16R centrifuge). […] This ratio was compared to the ratio generated in the absence of compound inhibitors.
Positive hits were individually purchased from Sigma and tested its dose dependent inhibition in conditions described above. […]

A further experiment concerns the target TcpC TIR (Escherichia coli O6:H1, UniProt A0A0H2V8B5). The experiment is described as follows: biochemical. It is filed as biochemical, uropathogenic Escherichia coli. To be noted: for inhibitor of TcpC TIR NADase activity (screen hit, NAD/ADPR ratio >2): Pharmakon library screen, 25 μM compound, 10 μM NAD, 37° C. 60 min, hits retested for dose dependent inhibition. The protocol: as §1, §2
(§3) Positive hits were individually purchased from Sigma and tested its dose dependent inhibition in conditions described above. SARM1 Sam-Tir lysate and MSSA Tir were also used to test if these compounds could block these Tir NADase activities as well.

For the next experiment, the target named is T3, SARM1 (Sam-Tir) (Homo sapiens, UniProt Q6SZW1).
T3 construct: SARM1 Sam-Tir lysate and MSSA Tir were also used; made in house; host or cells: lysate
T3 sequence (Q6SZW1 410-724 limits assumed): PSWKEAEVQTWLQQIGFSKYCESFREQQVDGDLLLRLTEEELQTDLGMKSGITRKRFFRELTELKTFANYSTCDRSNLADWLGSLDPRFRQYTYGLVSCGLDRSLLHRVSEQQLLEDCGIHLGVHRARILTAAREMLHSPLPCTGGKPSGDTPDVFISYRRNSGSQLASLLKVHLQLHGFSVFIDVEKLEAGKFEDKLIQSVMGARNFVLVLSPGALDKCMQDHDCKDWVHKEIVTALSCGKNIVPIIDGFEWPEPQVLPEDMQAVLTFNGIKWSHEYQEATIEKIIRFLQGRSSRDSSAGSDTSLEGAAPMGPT
The experiment is described as follows: SARM1 Sam-Tir lysate NADase inhibition assay. Format: biochemical. To be noted: data not shown. The protocol: NAD (10 μM final concentration) was then added for a final reaction volume of 20 μl. The reaction was incubated at 37° C. for 60 min, and then stopped by addition of 180 μl of 0.55 M perchloric acid (HClO4) and placed on ice. After 10 min on ice, the reaction plates were centrifuged for 10 min at 4,000 rpm (Sorvall ST 16R centrifuge). The supernatant (120 μl) was transferred to a new plate and 10 μl of 3M K2CO3 was added to neutralize the solution. Precipitated salts were removed by centrifugation 10 min at 4,000 rpm (Sorvall ST 16R centrifuge). The supernatant was transferred and analyzed by HPLC (Shimadzu Nexera X2) to quantify the amounts of NAD and ADPR, a product of the cleavage reaction, in each sample. From these values, the NAD/ADPR ratio was calculated for each compound as a measure of NAD cleavage activity. This ratio was compared to the ratio generated in the absence of compound inhibitors.
as §3

A further experiment has as its target TirS (Staphylococcus aureus, UniProt P0DTS9). The experiment is described as follows: TirS NADase inhibition assay (in-vitro translated protein, NAD/ADPR by HPLC). It is filed as biochemical. To be noted: FIG. 11B. The protocol: as §2
The subject of experiment [3] is SPN (Streptococcus Pyogenes NAD^+ glycohydrolase). To be noted: reported value (Ghosh et al., 2010); cited from earlier work.

For orientation: IC50 means the concentration needed to halve the response being measured. High values mean lower potency, low ones higher potency. The term Km denotes the substrate concentration at which the rate is half of its maximum.

Chain of TcpC TIR (A0A0H2V8B5 169-303 limits assumed): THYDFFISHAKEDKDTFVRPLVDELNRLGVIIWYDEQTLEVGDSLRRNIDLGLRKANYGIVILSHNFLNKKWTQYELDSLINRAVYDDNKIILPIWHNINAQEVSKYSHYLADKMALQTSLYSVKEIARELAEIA
Chain of TirS (P0DTS9 141-275 limits assumed): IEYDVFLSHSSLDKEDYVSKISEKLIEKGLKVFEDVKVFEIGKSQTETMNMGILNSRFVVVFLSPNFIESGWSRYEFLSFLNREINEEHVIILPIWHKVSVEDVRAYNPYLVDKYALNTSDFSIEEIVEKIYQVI
T2 sequence (A0A0H2V8B5 170-307): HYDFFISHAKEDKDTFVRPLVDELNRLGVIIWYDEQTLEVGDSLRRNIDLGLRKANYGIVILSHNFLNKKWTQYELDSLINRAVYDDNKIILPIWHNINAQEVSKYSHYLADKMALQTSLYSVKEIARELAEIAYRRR

Turning to `Nc1ncnc2c1ncn2[C@@H]1O[C@H](COP(=O)(O)OP(=O)(O)OC[C@H]2O[C@@H]([n+]3cccc(C(=O)O)c3)[C@H](O)[C@@H]2O)[C@@H](O)[C@H]1O` [NaAD, Nicotinic Acid Adenine Dinucleotide], the “cleavage of substrate by SARM1-TIR” value on SARM1-TIR is “none cleaved”. In addition, in experiment [1], the “cleavage of substrate by prokaryotic TIR domains” value was “none cleaved”. For the compound `Cc1cc(N)c2ccccc2[n+]1CCCCCCCCCC[n+]1c(C)cc(N)c2ccccc21` [Dequalinium], the “inhibition of TcpC TIR NADase activity” value in experiment [2] is “very potent inhibitor”. Besides, on TcpC TIR, the IC50 is around 0.3 µM and the “inhibitor of TcpC TIR NADase activity (screen hit, NAD/ADPR ratio >2)” value (shortened to “inhibitor … (screen hit, NAD/ADPR ratio >2)”) was “potent inhibitor”. The “inhibitor … (screen hit, NAD/ADPR ratio >2)” value at TcpC TIR (listed as dequalinium) is “inhibitors”. For the compound `NC(=O)c1ccc[n+]([C@@H]2O[C@H](COP(=O)([O-])OP(=O)(O)OC[C@H]3O[C@@H](n4cnc5c(=O)[nH]c(N)nc54)[C@H](O)[C@@H]3O)[C@@H](O)[C@H]2O)c1` [NGD, Nicotinamide Guanine Dinucleotide], the “cleavage of substrate by SARM1-TIR” value at SARM1-TIR is “cleaved”. In experiment [1], the “cleavage of substrate by prokaryotic TIR domains” value was “did not cleave”. Regarding “Nicotinamide Adenine Dinucleotide Phosphate [NADP^+]”, the “cleavage of substrate by prokaryotic TIR domains” value in experiment [1] is on record as “cleave”. On to `Nc1c2ccccc2nc2ccccc12` [9-aminoacridine], for which the “inhibition of SARM1 (Sam-Tir) NADase activity” value against SARM1 (Sam-Tir) is “Neither of these drugs inhibited”. For the same compound, the “inhibition of TirS NADase activity, compared among acridine compounds” value on TirS is given as “most potent inhibition”. Also, the “inhibition of TcpC TIR NADase activity” value at TcpC TIR (data not shown) was “Neither of these drugs inhibited”.

Turning to `NC(=O)c1ccc[n+]([C@@H]2O[C@H](COP(=O)([O-])OP(=O)(O)OC[C@H]3O[C@@H](n4cnc5c(N)ncnc54)[C@H](O)[C@@H]3O)[C@@H](O)[C@H]2O)c1` [NAD+], in experiment [3], the Km is 188 µM. With `NC(N)=NC(=O)c1nc(Cl)c(N)nc1N` [amiloride, 3,5-diamino-6-chloro-N-(diaminomethylidene)pyrazine-2-carboxamide], the “inhibitor … (screen hit, NAD/ADPR ratio >2)” value at TcpC TIR is “inhibitors”. In the case of `CC(=O)c1ccc[n+]([C@@H]2O[C@H](COP(=O)([O-])OP(=O)(O)OC[C@H]3O[C@@H](n4cnc5c(N)ncnc54)[C@H](O)[C@@H]3O)[C@@H](O)[C@H]2O)c1` [3-apAD, 3-acetylpyridine adenine dinucleotide], on SARM1-TIR, the “cleavage of substrate by SARM1-TIR” value is “substantially cleaved”. In experiment [1], the “cleavage of substrate by prokaryotic TIR domains” value is “substantially cleaved”. As to `NC(=O)c1ccc[n+]([C@@H]2O[C@H](COP(=O)([O-])O)[C@@H](O)[C@H]2O)c1` [NMN, Nicotinamide Mononucleotide], the “cleavage of substrate by prokaryotic TIR domains” value in experiment [1] is recorded as “little effect”. Take `Nc1ncnc2c1ncn2[C@@H]1O[C@H](COP(=O)(O)OP(=O)(O)OP(=O)(O)O)[C@@H](O)[C@H]1O` [ATP, Adenosine triphosphate]: the “cleavage of substrate by SARM1-TIR” value on SARM1-TIR is “unable to detect substantial cleavage”. Besides, in experiment [1], the “cleavage of substrate by prokaryotic TIR domains” value is on record as “unable to detect substantial cleavage”. On to `NC(=S)c1ccc[n+]([C@@H]2O[C@H](COP(=O)([O-])OP(=O)(O)OC[C@H]3O[C@@H](n4cnc5c(N)ncnc54)[C@H](O)[C@@H]3O)[C@@H](O)[C@H]2O)c1` [sNAD, thionicotinamide adenine dinucleotide], for which the “cleavage of substrate by SARM1-TIR” value on SARM1-TIR was “substantially cleaved”. Also, in experiment [1], the “cleavage of substrate by prokaryotic TIR domains” value is “substantially cleaved”.

`NC(=O)c1ccc[n+](C2OC(COP(=O)(O)OP(=O)(O)OCC3OC(n4cnc5c(=O)[nH]cnc54)C(O)C3O)C(O)C2O)c1` (stereo not shown) [NHD, Nicotinamide Hypoxanthine Dinucleotide]: the “cleavage of substrate by SARM1-TIR” value on SARM1-TIR is reported as “cleaved”. Moreover, in experiment [1], the “cleavage of substrate by prokaryotic TIR domains” value is reported as “did not cleave”.

Turning to Guanine triphosphate [GTP], on SARM1-TIR, the “cleavage of substrate by SARM1-TIR” value is listed as “unable to detect substantial cleavage”. Further, the “cleavage of substrate by prokaryotic TIR domains” value in experiment [1] was “unable to detect substantial cleavage”.
